The text below walks through data of US20250152535A1, “COMPOSITION FOR PREVENTING OR IMPROVING HEPATIC DYSFUNCTION” (KYOWA HAKKO BIO CO., LTD., priority 2022, published 2025).

One test relates to HepG2 cells. The test is described as follows: Protective effect against hepatocellular damage by hydrogen peroxide in HepG2 cells, cell survival rate by MTT assay. The class given is cell-based, human. The settings on record: for Cell survival rate (%): then 0.1 mM hydrogen peroxide for 2 hours, control group = 100; for cell survival rate as compared with the solvent addition group: sample added before 0.1 mM hydrogen peroxide. How it is done:
A human hepatoma-derived cell line (HepG2: HB-8065™, Lot number: 70029112) was obtained from American Type Culture Collection, and Dulbecco's Modified Eagle Medium containing 10% FBS (Thermo Fisher Scientific, Inc.) was used as a basal medium. Cells were cultured in an incubator of 37° C. and 5% CO2, and the cells that had been passaged to 16 to 25 generations were subjected to experimentation. The used GSSG and GSSSG were those manufactured by KYOWA HAKKO BIO Co., Ltd.
0.15 mL of a cell suspension obtained by adjusting the initial cell concentration to 2×10^4 cells/mL was seeded in a 96-well plate (Thermo Fisher Scientific, Inc.).
After the culturing for 4 hours from the seeding, GSSSG (for the addition group of the final concentration of 0.05 mM and the addition group of the final concentration of 0.1 mM) was added to the culture medium. In addition, apart from this, a group in which only the solvent of GSSSG (PBS in which sodium hydrogen carbonate was dissolved so that the concentration thereof was 15.8 mM) was added was defined as a solvent addition group. After the culturing for 20 hours from the sample addition, the culture medium was replaced with a culture medium (not containing GSSSG) obtained by adding hydrogen peroxide solution (FUJIFILM Wako Pure Chemical Corporation) to the above-described sample addition group and the solvent addition group so that the final concentration thereof was 0.1 mM, and then hepatocellular damage was induced. The control group was the group in which the same amount of PBS was added to the solvent addition group instead of hydrogen peroxide solution. After the culturing for 2 hours from the addition of hydrogen peroxide solution or PBS, the cell survival rate was measured according to the MTT assay, and the degree of hepatocellular damage was evaluated. For GSSG as well, an experiment was carried out in the same manner as in the GSSSG, except that PBS was used as a solvent.

The test system of a further test is ICR mice. The experiment in a line: Carbon tetrachloride (CCl4)-induced hepatic dysfunction model in mice, blood plasma AST and ALT levels. The class given is in vivo. The note with it: male ICR mice; 400 mg/kg/day once-daily oral for three days, then CCl4 0.04 mL/kg i.p.; blood 16 hours after CCl4; compared with group 2 (vehicle+CCl4). As to the method:
GSSSG dihydrate prepared by the method described in Patent Literature 1 was crushed in a mortar. To 10 mL of distilled water, the crushed GSSSG dihydrate (200 mg in terms of anhydride) was added and suspended. Then, twice as much sodium hydrogen carbonate as the GSSSG anhydride was added thereto on a molar basis, and the resultant mixture was mixed for 10 minutes. The obtained GSSSG solution was further diluted with distilled water to obtain administration samples 3 and 4. In addition, reduced glutathione (GSH) or oxidized glutathione (GSSG), manufactured by KYOWA HAKKO BIO Co., Ltd., was dissolved in distilled water to obtain each of administration samples 1 and 2.
Four-week-old male ICR mice (Charles River Laboratories Japan, Inc.) were acclimated for 1 week and then subjected to a test at 5 weeks of age. During the test period, the mice were allowed to freely drink water regarding water, allowed to freely ingest a solid feed CE-2 (CLEA Japan, Inc.), and kept at a temperature of 20° C. to 24° C., a humidity of 50% to 60%, and for 12 hours of light-dark cycle. Thereafter, the mice were divided into groups 1 to 6 so that each group included 3 or 4 mice. • Group 1: Normal (vehicle-no symptoms induced) • Group 2: Vehicle+CCl4 • Group 3: GSH 400 mg/kg/day (administration sample 1)+CCl4 • Group 4: GSSG 400 mg/kg/day (administration sample 2)+CCl4 • Group 5: GSSSG 100 mg/kg/day (administration sample 3)+CCl4
Group 6: GSSSG 400 mg/kg/day (administration sample 4)+CCl4
After the group dividing, the vehicle, the administration sample 1, the administration sample 2, the administration sample 3, or the administration sample 4 was subjected to an once-daily forced oral administration at the above-described dose for a total of three consecutive days. After 30 minutes from the final oral administration, CCl4 (0.04 mL/kg) suspended in olive oil was intraperitoneally administered to induce hepatic dysfunction.

As for `N[C@@H](CCC(=O)N[C@@H](CSSSC[C@H](NC(=O)CC[C@H](N)C(=O)O)C(=O)NCC(=O)O)C(=O)NCC(=O)O)C(=O)O` [GSSSG, glutathione trisulfide], the “Cell survival rate (%)” value in the test with HepG2 cells (sample 0.05 mM for 20 hours) was determined as 36.9%. The “Cell survival rate (%)” value in the test with HepG2 cells (sample 0.1 mM for 20 hours) amounted to 49.7%. The “cell survival rate as compared with the solvent addition group” value in the test on HepG2 cells is “improved survival rate”. Also, in the test with ICR mice, the “blood plasma ALT level” value is “tendency of the suppression” and the “blood plasma AST level” value was “tendency of the suppression”.
Take oxidized glutathione [GSSG]: the “Cell survival rate (%)” value in the test with HepG2 cells (sample 0.05 mM for 20 hours) worked out at 39.4%. Also, the “Cell survival rate (%)” value in the test on HepG2 cells (sample 0.1 mM for 20 hours) is reported as 38.4%. In addition, the “cell survival rate as compared with the solvent addition group” value with HepG2 cells is reported as “significantly decreased”. For the same molecule, in the test with ICR mice, the “blood plasma ALT level” value was “significant suppression” and the “blood plasma AST level” value was “significant suppression”.
`N[C@@H](CCC(=O)N[C@@H](CS)C(=O)NCC(=O)O)C(=O)O` [GSH, reduced glutathione]: in the test on ICR mice, the “blood plasma ALT level” value is “significant suppression” and the “blood plasma AST level” value was “significant suppression”.
